“Also recorded” adds a separate entry of the source. Counter-ions that a name gives are not always drawn.
Assays:
[1] = test system: CD34+Lin− stem and progenitor cells; experiment: FACS analysis of hematopoietic stem and progenitor profiles of CML patient samples before and after imatinib; type: in vivo, human
Excerpt: Bone Marrow and Peripheral Blood Samples. Fresh human bone marrow was obtained with informed consent from healthy volunteers (AllCells, Berkeley, Calif.) as well as from allogeneic bone marrow donors (Department of Bone Marrow Transplantation, Stanford School of Medicine, Stanford, Calif.). Cytokine (G-CSF) mobilized peripheral blood samples were also obtained following apheresis from allogeneic donors.
Hematopoietic Stem Cell and Myeloid Progenitor Flow Cytometric Analysis and Cell Sorting. Mononuclear fractions were extracted following Ficoll density centrifugation according to standard methods and analyzed fresh or subsequent to rapid thawing of samples previously frozen in 90% FCS and 10% DMSO in liquid nitrogen. Prior to FACS analysis and sorting, hematopoietic stem cells (HSCs) were stained with lineage marker specific phycoerythrin (PE)-Cy5-conjugated antibodies including CD2 RPA-2.10; CD11b, ICRF44; CD20, 2H7; CD56, B159; GPA, GA-R2 (Becton Dickinson-PharMingen, San Diego), CD3, S4.1; CD4, S3.5; CD7, CD7-6B7; CD8, 3B5; CD10, 5-1B4, CD14, TUK4; CD19, SJ25-C1 (Caltag, South San Francisco, Calif.) and APC-conjugated anti-CD34, 84G12 (Becton Dickinson-Pharmingen), biotinylated anti-CD38, HIT2 (Caltag), FITC-conjugated anti-CD90 and PE conjugated anti-Flk2. […]
Myeloid progenitors were stained with the same lineage marker specific PE-Cy5-conjugated antibodies, APC-conjugated anti-CD34, 8G12 (Becton Dickinson-PharMingen) and biotinylated anti-CD38, HIT2 (Caltag) in addition to PE-conjugated anti-IL-3Rα, 9F5 (Becton Dickinson-ParMingen) and FITC-conjugated anti-CD45RA, MEM56 (Caltag) followed by staining with Streptavidin-Texas Red to visualize CD38-BIO stained cells and resuspension in propidium iodide to exclude dead cells. Unstained samples and isotype controls were included to assess background fluorescence. After staining, cells were analyzed and sorted using a modified FACS Vantage (Becton Dickinson Immunocytometry Systems, Mountain View, Calif.) equipped with a 599 nm dye laser and a 488 nm argon laser. […]

[2] = test system: β-catenin; experiment: β-catenin FACS analysis of CML patient progenitors; type: in vivo, human; details: CML patients pre versus post-imatinib
Excerpt: β-catenin FACS Analysis. FACS-separated hematopoietic stem cells, common myeloid progenitors, granulocyte/macrophage progenitors, and megakaryocyte/erythroid progenitors were fixed with 0.8% paraformaldehyde and made permeable with 0.3% saponin. Cells were stained overnight with a fluorescein isothiocyanate (FITC)-conjugated antibody to β-catenin (Transduction Laboratories) or IgG1 isotype control-FITC antibody, washed, and analyzed by FACS.

Cc1ccc(NC(=O)c2ccc(CN3CCN(C)CC3)cc2)cc1Nc1nccc(-c2cccnc2)n1 [imatinib, imatinib mesylate]
number of CD34+Lin− cells ([1]; CML patients post-imatinib / responding to imatinib, bone marrow and peripheral blood): dramatic decline; also recorded: significant decrease | number of CD34+CD38− and CD34+CD38+ cells ([1]; imatinib responsive patients): decreased | proportion of individual myeloid progenitors ([1]; imatinib responsive patients): reverted to normal | β-catenin levels (MFI) in myeloid progenitors [2]: normal

From patent publication US7816088B2, “Identification, isolation and elimination of cancer stem cells” (The Board of Trustees of the Leland Stanford Junior …, priority 2003, dated 2010)
